Assay results as given in US9255101B2 (BIOPROJECT, priority 2012, dated 2016).
Counter-ions that a name gives are not always drawn.

Target: human H4 receptor (Homo sapiens, UniProt Q9H3N8)
Test: biochemical
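Further: radioligand displacement of a [3H]-labelled ligand from membranes of CHO cells stably expressing human H4 receptor, bound radioactivity counted on filters by liquid scintillation.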

human H4 receptor, sequence (Q9H3N8 whole entry): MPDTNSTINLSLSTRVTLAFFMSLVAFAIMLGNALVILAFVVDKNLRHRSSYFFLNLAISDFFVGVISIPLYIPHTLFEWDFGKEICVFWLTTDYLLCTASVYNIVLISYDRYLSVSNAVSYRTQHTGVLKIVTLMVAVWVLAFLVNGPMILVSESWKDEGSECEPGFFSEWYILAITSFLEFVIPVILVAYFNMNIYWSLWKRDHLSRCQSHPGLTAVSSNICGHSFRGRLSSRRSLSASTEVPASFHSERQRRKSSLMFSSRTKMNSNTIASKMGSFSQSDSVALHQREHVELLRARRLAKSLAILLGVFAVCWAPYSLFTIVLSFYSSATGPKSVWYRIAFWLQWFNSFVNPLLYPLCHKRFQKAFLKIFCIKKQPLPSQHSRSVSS

| Compound | Ki [nM] |
| --- | --- |
| CN1CCC(OC2c3ccccc3CCn3cc(-c4ccc(Cl)cc4)nc32)CC1 (stereo not drawn) [Example 52, 2-(4-chloro-phenyl)-4-(1-methylpiperidin-4-yloxy)-9,10-dihydro-4H-3,10a-diaza-benzo[f]azulene oxalate] | < 30 |
| CN1CCC(OC2c3ccccc3CCn3cc(C4=CCSCC4)nc32)CC1 (stereo not drawn) [Example 57, 2-(3,6-dihydro-2H-thiopyran-4-yl)-4-(1-methylpiperidin-4-yloxy)-9,10-dihydro-4H-3,10a-diaza-benzo[f]azulene] | < 300 |
| CN1CCC(OC2c3ccccc3CCn3cc(C=CC(=O)OC(C)(C)C)nc32)CC1 (stereo not drawn) [Example 53, 3-[4-(1-methylpiperidin-4-yloxy)-9,10-dihydro-4H-3,10a-diaza-benzo[f]azulen-2-yl]-acrylic acid tert-butyl ester oxalate] | < 1000 |
| CN1CCC(OC2c3ccccc3CCn3cc(-c4ccc(N(C)C(=O)C(C)(C)C)cc4)nc32)CC1 (stereo not drawn) [Example 101, 2,2,N-trimethyl-N-{4-[4-(1-methylpiperidin-4-yloxy)-9,10-dihydro-4H-3,10a-diaza-benzo[f]azulen-2-yl]-phenyl}-propionamide oxalate] | < 300 |
| Cc1ccccc1-c1cn2c(n1)C(OC1CCN(C)CC1)c1ccccc1CC2 (stereo not drawn) [Example 8, 4-(1-methyl-piperidin-4-yloxy)-2-o-tolyl-9,10-dihydro-4H-3,10a-diaza-benzo[f]azulene] | < 300 |
| CN1CCC(OC2c3ccccc3CCn3cc(-c4ncco4)nc32)CC1 (stereo not drawn) [Example 40, 4-(1-methylpiperidin-4-yloxy)-2-oxazol-2-yl-9,10-dihydro-4H-3,10a-diaza-benzo[f]azulene oxalate] | < 1000 |
| CN1CCC(OC2c3ccccc3CCn3cc(-c4ccc(Cl)cc4Cl)nc32)CC1 (stereo not drawn) [Example 71, 2-(2,4-dichlorophenyl)-4-(1-methylpiperidin-4-yloxy)-9,10-dihydro-4H-3,10a-diaza-benzo[f]azulene oxalate] | < 30 |
| C=C(C)Cc1nc2n(c1C)CCc1ccccc1C2OC1CCN(C)CC1 (stereo not drawn) [Example 260, 1-methyl-2-(2-methylallyl)-4-(1-methylpiperidin-4-yloxy)-9,10-dihydro-4H-3,10a-diaza-benzo[f]azulene] | < 300 |
| CN1CCC(OC2c3ccccc3CCn3cc(-c4ccc(CO)cc4)nc32)CC1 (stereo not drawn) [Example 18, {4-[4-(1-methylpiperidin-4-yloxy)-9,10-dihydro-4H-3,10a-diaza-benzo[f]azulen-2-yl]-phenyl}-methanol] | < 1000 |
| CC(C)Cc1ccc(-c2cn3c(n2)C(OC2CCN(C)CC2)c2ccccc2CC3)cc1 (stereo not drawn) [Example 28, 2-(4-isobutylphenyl)-4-(1-methylpiperidin-4-yloxy)-9,10-dihydro-4H-3,10a-diaza-benzo[f]azulene] | < 30 |
| Cc1c(CCC(C)(C)C)nc2n1CCc1ccccc1C2OC1CCN(C)CC1 (stereo not drawn) [Example 229, 2-(3,3-dimethyl-butyl)-1-methyl-4-(1-methylpiperidin-4-yloxy)-9,10-dihydro-4H-3,10a-diaza-benzo[f]azulene] | < 30 |
| Cc1c(-c2ccc(CCS(C)(=O)=O)cc2)nc2n1CCc1ccccc1C2OC1CCN(C)CC1 (stereo not drawn) [Example 159, 2-[4-(2-methanesulfonylethyl)-phenyl]-1-methyl-4-(1-methylpiperidin-4-yloxy)-9,10-dihydro-4H-3,10a-diaza-benzo[f]azulene] | < 30 |
| Cc1nc2n(c1-c1ccccc1)CCc1ccccc1C2OC1CCN(C)CC1 (stereo not drawn) [Example 123, 2-methyl-4-(1-methylpiperidin-4-yloxy)-1-phenyl-9,10-dihydro-4H-3,10a-diaza-benzo[f]azulene oxalate] | < 300 |
| CN1CCC(OC2c3ccccc3CCn3cc(C=CCC4CCCC4)nc32)CC1 (stereo not drawn) [Example 104, 2-(3-cyclopentylpropenyl)-4-(1-methylpiperidin-4-yloxy)-9,10-dihydro-4H-3,10a-diaza-benzo[f]azulene] | < 30 |
| CN1CCC(OC2c3ccccc3CCn3cc(-c4ccco4)nc32)CC1 (stereo not drawn) [Example 24, 2-furan-2-yl-4-(1-methylpiperidin-4-yloxy)-9,10-dihydro-4H-3,10a-diaza-benzo[f]azulene] | < 300 |
| CN1CCC(OC2c3ccccc3CCn3cc(-c4ccccn4)nc32)CC1 (stereo not drawn) [Example 23, 4-(1-methylpiperidin-4-yloxy)-2-pyridin-2-yl-9,10-dihydro-4H-3,10a-diaza-benzo[f]azulene] | < 1000 |
| Cc1c(-c2ccc(SCCNC(=O)OC(C)(C)C)cc2)nc2n1CCc1ccccc1C2OC1CCN(C)CC1 (stereo not drawn) [Example 160, (2-{4-[1-methyl-4-(1-methylpiperidin-4-yloxy)-9,10-dihydro-4H-3,10a-diaza-benzo[f]azulen-2-yl]-phenylsulfanyl}-ethyl)-carbamic acid tert-butyl ester oxalate] | < 30 |
| CN1CCC(OC2c3ccccc3CCn3cc(-c4ccc(CN5CCN(C(C)(C)C)C5=O)cc4)nc32)CC1 (stereo not drawn) [Example 191, 1-tertbutyl-3-{4-[4-(1-methylpiperidin-4-yloxy)-9,10-dihydro-4H-3,10a-diaza-benzo[f]azulen-2-yl]benzyl}-imidazolidin-2-one] | < 300 |

| Compound | Ki [nM] |
| --- | --- |
| CNc1ccc(-c2cn3c(n2)C(OC2CCN(C)CC2)c2ccccc2CC3)cc1 (stereo not drawn) [Example 100, methyl-{4-[4-(1-methylpiperidin-4-yloxy)-9,10-dihydro-4H-3,10a-diaza-benzo[f]azulen-2-yl]-phenyl}-amine oxalate] | < 1000 |
| Cc1c(-c2ccc(N3CCN(C)C3=O)cc2)nc2n1CCc1ccccc1C2OC1CCN(C)CC1 (stereo not drawn) [Example 132, 1-methyl-3-{4-[1-methyl-4-(1-methylpiperidin-4-yloxy)-9,10-dihydro-4H-3,10a-diaza-benzo[f]azulen-2-yl]-phenyl}-imidazolidin-2-one] | < 300 |
| CN1CCC(OC2c3ccccc3CCn3cc(C(C)(C)c4ccc(Cl)cc4)nc32)CC1 (stereo not drawn) [Example 117, 2-[1-(4-chlorophenyl)-1-methyl-ethyl]-4-(1-methylpiperidin-4-yloxy)-9,10-dihydro-4H-3,10a-diaza-benzo[f]azulene oxalate] | < 300 |
| CN1CCC(OC2c3ccccc3CCn3cc(SC4CCCCC4)nc32)CC1 (stereo not drawn) [Example 98, 2-cyclohexylsulfanyl-4-(1-methylpiperidin-4-yloxy)-9,10-dihydro-4H-3,10a-diaza-benzo[f]azulene oxalate] | < 300 |
| CN1CCC(OC2c3ccccc3CCn3cc(-c4nccs4)nc32)CC1 (stereo not drawn) [Example 66, 4-(1-methylpiperidin-4-yloxy)-2-thiazol-2-yl-9,10-dihydro-4H-3,10a-diaza-benzo[f]azulene oxalate] | < 300 |
| CN1CCC(OC2c3ccccc3CCn3cc(-c4ccc(CN5C(=O)OC(C)(C)C5=O)cc4)nc32)CC1 (stereo not drawn) [Example 198, 5,5-dimethyl-3-{4-[4-(1-methylpiperidin-4-yloxy)-9,10-dihydro-4H-3,10a-diaza-benzo[f]azulen-2-yl]benzyl}-oxazolidine-2,4-dione] | < 300 |
| CN1CCC(OC2c3ccccc3CCn3cc(-c4ccc(CCOC(=O)NC(C)(C)C)cc4)nc32)CC1 (stereo not drawn) [Example 200, tert-butyl-carbamic acid 2-{4-[4-(1-methylpiperidin-4-yloxy)-9,10-dihydro-4H-3,10a-diaza-benzo[f]azulen-2-yl]-phenyl}-ethyl ester] | < 300 |
| CN1CCC(OC2c3ccccc3CCn3c2nc(Cc2ccccc2)c3C#N)CC1 (stereo not drawn) [Example 263, 2-benzyl-4-(1-methylpiperidin-4-yloxy)-9,10-dihydro-4H-3,10a-diaza-benzo[f]azulene-1-carbonitrile] | < 300 |
| CN1CCC(OC2c3ccccc3CCn3cc(CCC4CCCCC4)nc32)CC1 (stereo not drawn) [Example 95, 2-(2-cyclohexylethyl)-4-(1-methylpiperidin-4-yloxy)-9,10-dihydro-4H-3,10a-diaza-benzo[f]azulene oxalate] | < 30 |
| Cc1ccc(-c2cn3c(n2)C(OC2CCN(C)CC2)c2ccccc2CC3)cn1 (stereo not drawn) [Example 39, 4-(1-methylpiperidin-4-yloxy)-2-(6-methylpyridin-3-yl)-9,10-dihydro-4H-3,10a-diaza-benzo[f]azulene oxalate] | < 1000 |
| CN1CCC(OC2c3ccccc3CCn3cc(-c4ccc(N(C)C)cc4)nc32)CC1 (stereo not drawn) [Example 35, dimethyl-{4-[4-(1-methylpiperidin-4-yloxy)-9,10-dihydro-4H-3,10a-diaza-benzo[f]azulen-2-yl]-phenyl}-amine oxalate] | < 1000 |
| CN1C2CCC1CC(OC1c3ccccc3CCn3c1nc(I)c3I)C2 (stereo not drawn) [Example 269, 1,2-diiodo-4-(8-methyl-8-aza-bicyclo[3.2.1]oct-3-yloxy)-9,10-dihydro-4H-3,10a-diaza-benzo[f]azulene] | < 1000 |
| CCc1cn2c(n1)C(OC1CCN(C)CC1)c1ccccc1CC2 (stereo not drawn) [Example 13, 2-ethyl-4-(1-methylpiperidin-4-yloxy)-9,10-dihydro-4H-3,10a-diaza-benzo[f]azulene oxalate] | < 300 |
| Cc1c(-c2ccc(NC(=O)OC3CCCC3)cc2)nc2n1CCc1ccccc1C2OC1CCN(C)CC1 (stereo not drawn) [Example 172, {4-[1-methyl-4-(1-methylpiperidin-4-yloxy)-9,10-dihydro-4H-3,10a-diaza-benzo[f]azulen-2-yl]-phenyl}-carbamic acid cyclopentyl ester] | < 30 |
| Cc1c(-c2ccccn2)nc2n1CCc1ccccc1C2OC1CCN(C)CC1 (stereo not drawn) [Example 251, 1-methyl-4-(1-methylpiperidin-4-yloxy)-2-pyridin-2-yl-9,10-dihydro-4H-3,10a-diaza-benzo[f]azulene] | < 300 |
| CCOC(=O)c1nc2n(c1C)CCc1ccccc1C2OC1CCN(C)CC1 (stereo not drawn) [Example 118, 1-methyl-4-(1-methylpiperidin-4-yloxy)-9,10-dihydro-4H-3,10a-diaza-benzo[f]azulene-2-carboxylic acid ethyl ester] | < 1000 |
| Cc1c(-c2ccc(NC(=O)NC34CC5CC(CC(C5)C3)C4)cc2)nc2n1CCc1ccccc1C2OC1CCN(C)CC1 (stereo not drawn) [Example 213, 1-adamantan-1-yl-3-{4-[1-methyl-4-(1-methylpiperidin-4-yloxy)-9,10-dihydro-4H-3,10a-diaza-benzo[f]azulen-2-yl]-phenyl}-urea] | < 30 |
| CN1CCC(OC2c3ccccc3CCn3cc(C=CCOCc4ccccc4)nc32)CC1 (stereo not drawn) [Example 124, 2-(3-benzyloxypropenyl)-4-(1-methylpiperidin-4-yloxy)-9,10-dihydro-4H-3,10a-diaza-benzo[f]azulene oxalate] | < 300 |
